Measured values published in patent US7977361B2, “Nitro-imidazole hypoxia imaging agent” (Siemens Medical Solutions USA, Inc., priority 2007, dated 2011).
“Also recorded” adds a separate entry of the source.

Tests used:
[1] = Plasma and urine pharmacology study of Compound 1 in rats (LC/MS after IV injection); type: in vivo; conditions: rat
Protocol: (§1) To the samples were added a proportional amount of lysis buffer (about 5 ml/gram tissue) before the tissue was homogenized using a powered homogenizer, 50 μL of lysis buffer was added to the blood and urine samples, followed by briefly vortexing. 200 μl of organ homogenate was sampled into a 1.5 ml Eppendorf tube. All samples were heated at 100° C. for 2 minutes to denature the proteins and then placed in ice for 15 minutes. Then 40 μl of formic acid was added to the organ samples and 20 μl was added to the blood and urine samples. All tubes were vortexed to achieve complete mixing of sample with acid. Samples were then placed on ice for 15 minutes before being centrifuged at 13000 rpm for 15 minutes at 4° C. 30 μl of the supernatant was transferred to an HPLC vial for MSD analysis.
(§2) A standard curve with a wide range of Compound 1 concentrations was prepared using the same method described above for tissue lysate treatment. The corresponding peak of the compound was identified first in the standards. The areas of the peaks were measured and converted into a standard correlation curve for estimation of Compound 1 concentration in the samples. The amount of compound in each sample is expressed as % injected dose/gram tissue (% ID/g tissue).
Method: Compound 1 solution was prepared as described previously. One ml of 10 mM Compound 1 solution was injected intravenously (tail vein) into rats under isofluorane anesthesia. Blood and urine samples were collected before injection and at 15, 30, 60, 90 and 120 minutes after injection. Samples treatments and LC/MS measurement are the same as the mouse samples described in 1A.

[2] = test system: A172 human brain glioblastoma; experiment: Cytotoxicity assay (MTT reduction), A172 cells; type: cell-based; conditions: A172, 0-10000 nM, 24 hours
Protocol: (§3) Method: The assay is based on the ability of viable cells to reduce 3-[4,5-dimethylthiazol-2-yl]-2,5-diphenyl tetrazolium bromide to colored formazan crystals. Ls174T human colorectal adenocarcinoma, A172 human brain glioblastoma, MRC5 human normal lung fibroblast, and ALM12 mouse normal liver cell lines were selected for this study. Cells were cultured with different concentration of Compound 1 (0, 100, 500, 1000, 5000, 10000 nM) for 24 hours and then incubated with 0.5 mg/ml of 3-[4,5-dimethylthiazol-2-yl]-2,5-diphenyl tetrazolium bromide for 1 hour. Cells were lysed and formazan crystals were dissolved with 2-propanol for 1 hour and the optical density of the resultant colored 2-propanol was measured. The percentages of cell survival were calculated based on the optical densities.

[3] = test system: ALM12 mouse normal liver cell lines; experiment: Cytotoxicity assay (MTT reduction), ALM12 cells; type: cell-based; conditions: ALM12, 0-10000 nM, 24 hours
Protocol: as §3

[4] = test system: Ls174T human colorectal adenocarcinoma; experiment: Cytotoxicity assay (MTT reduction), Ls174T cells; type: cell-based; conditions: 0-10000 nM, 24 hours
Protocol: as §3

[5] = Bio-distribution and bio-stability of Compound 1 in mice (LC/MS of blood, urine and organs after IV injection); type: in vivo; conditions: mouse; for tissue uptake at 30 min: 1 µmol per animal
Protocol: Method: Compound 1 was dissolved in DMSO to achieve a 100 mM stock solution. This was then diluted with 1× PBS containing 3% Solutol to achieve a concentration of 5 mM. 200 μl of 5 mM Compound 1 solution was injected into the tail vein in mice animals under isofluorane anesthesia. The in vivo uptake was two hours.
Blood and urine samples were collected at 30, 60, 90 and 120 minutes. Samples were immediately placed on ice to prevent compound degradation. After blood and urine sampling were completed at 120 minutes, the mouse was sacrificed by cervical dislocation. The following whole organs were harvested within 30-40 minutes in the following order; lower GI, upper GI, spleen, pancreas, gall bladder, liver, heart, kidneys, lungs, about 0.3 gram of muscle from both legs, about 0.4 gram of skin at the back, the entire brain and about 0.4 gram of fat inside the abdomen.
as §1, §2

[6] = test system: MRC5 human normal lung fibroblast; experiment: Cytotoxicity assay (MTT reduction), MRC5 cells; type: cell-based; conditions: MRC5, 0-10000 nM, 24 hours
Protocol: as §3

- tissue uptake at 30 min ([1]; 10 µmol per animal, IV tail vein 1 ml of 10 mM, urine at 30 minute, read-out: urine level): 5.3 %ID/g
- urine excretion and blood clearance [1]: fast
- urine excretion index (averaged urine % ID/g divided by blood % ID/g at 120 minute) [1]: 36.62
- tissue uptake at 30 min ([1]; whole blood, 10 µmol per animal, IV tail vein 1 ml of 10 mM, blood at 30 minutes, read-out: blood level): 0.67 %ID/g
- tissue uptake at 120 min ([1]; whole blood, 10 µmol per animal, IV tail vein 1 ml of 10 mM, blood at 120 minutes, read-out: blood level): 0.15 %ID/g
- tissue uptake at 30 min ([5]; IV tail vein 200 μl of 5 mM, urine at 30 minutes, read-out: urine level): 95.6 %ID/g
- blood clearance and urine excretion [5]: fast
- urine excretion index (averaged urine % ID/g divided by blood % ID/g at 120 minute) [5]: 88.69
- blood level ([5]; IV tail vein 200 μl of 5 mM, blood at 120 minutes): 0.59%
- levels in gall bladder and GI system ([5]; organs harvested after 120 minutes): low
- tissue uptake at 30 min ([5]; whole blood, IV tail vein 200 μl of 5 mM, blood at 30 minutes, read-out: blood level): 4.1 %ID/g
Compound: O=[N+]([O-])c1nccn1Cc1cn(C(CO)CF)nn1 (stereo not drawn) [Compound 1, 3-Fluoro-2-(4-((2-nitro-1H-imidazol-1-yl)methyl)-1H-1,2,3-triazol-1-yl)propan-1-ol]
- cytotoxicity: numbers of viable cells vs untreated control cells [2]: no cytotoxic effects; also recorded: no difference
- cytotoxicity: numbers of viable cells vs untreated control cells [3]: no difference
- cytotoxicity: numbers of viable cells vs untreated control cells [4]: no cytotoxic effects; also recorded: no difference
- cytotoxicity: numbers of viable cells vs untreated control cells [6]: no cytotoxic effects; also recorded: no difference
